Experimental data published in ChEMBL document CHEMBL3272248, “beta-Adrenergic blocking agents. 18. 1-(Aryloxy)-3-(arylthioalkylamino)propan-2-ols and 1-substituted alkylthioamino-3-(aryloxy)propan-2-ols” (1978).
Active and inactive are the calls of the source. The calls are words filed in the database; no cut-off is given here.

Experiments:
Felis catus [1] = assay: In vivo inhibition of beta-1 adrenergic receptor in iv dosed cat assessed as inhibition of isoproterenol-induced trachycardia after 30 mins; format: functional; settings: 0.5 h
Felis catus [2] = assay: In vivo inhibition of beta-2 adrenergic receptor in iv dosed cat assessed as inhibition of isoproterenol-induced vasodepressor response after 30 mins; format: functional
Felis catus [3] = assay: In vivo inhibition of beta-1 adrenergic receptor in cat assessed as inhibition of isoproterenol-induced trachycardia at 200 ug/kg/min, iv after 30 mins; format: functional, organism-based

Structure (SMILES) | ED50 (Felis catus [1]) [mg/kg] | inhibition (INH) (Felis catus [2]) [%] | inhibition (Felis catus [3])
CCSCCCNCC(O)COc1ccccc1[N+](=O)[O-].O=C(O)C(=O)O (stereo unspecified) | 0.13 | 12 | –
Cc1ccc(SCCNCC(O)COc2ccccc2)cc1 (stereo unspecified) | 0.289 | 43 | –
CCSCCNCC(O)COc1ccccc1[N+](=O)[O-] (stereo unspecified) | – | – | inactive
CCSCCCNCC(O)COc1ccc(CC(N)=O)cc1 (stereo unspecified) | – | – | inactive
Cc1ccccc1OCC(O)CNCCSCc1ccccc1 (stereo unspecified) | – | – | inactive
OC(CNCCSc1ccccc1)COc1ccccc1 (stereo unspecified) | 0.138 | 13 | –
Cc1ccc(SCCCNCC(O)COc2ccccc2)cc1.Cl (stereo unspecified) | 1.26 | 11 | –
CCSCCCNCC(O)COc1ccccc1.O=C(O)C(=O)O (stereo unspecified) | 0.838 | 14 | –
CCSCCCNCC(O)COc1ccccc1OC.O=C(O)C(=O)O (stereo unspecified) | 0.285 | 70 | –
O=[N+]([O-])c1ccccc1OCC(O)CNCCSCc1ccccc1 (stereo unspecified) | 0.946 | 0 | –
CC(CNCC(O)COc1ccccc1)Sc1ccccc1.O=C(O)C(=O)O (stereo unspecified) | 0.559 | 18 | –
CCSCCNCC(O)COc1ccccc1.Cl (stereo unspecified) | 0.332 | 0 | –
O=S(=O)(CCNCC(O)COc1ccccc1)c1ccccc1 (stereo unspecified) | 1.33 | 53 | –
O=C(O)C(=O)O.[O-][S+](CCNCC(O)COc1ccccc1)Cc1ccccc1 (stereo unspecified) | 0.156 | 20 | –
O=C(O)C(=O)O.[O-][S+](CCCNCC(O)COc1ccccc1)C1CCCCC1 (stereo unspecified) | 0.162 | 68 | –
CC[S+]([O-])CCNCC(O)COc1ccccc1.O=C(O)C(=O)O (stereo unspecified) | 0.195 | 10 | –
CC(C)SCCCNCC(O)COc1ccccc1.O=C(O)C(=O)O (stereo unspecified) | 0.333 | 0 | –
CCSCCCNCC(O)COc1ccccc1Cl (stereo unspecified) | 0.269 | 52 | –
Cc1cccc(OCC(O)CNCCSc2ccccc2)c1 (stereo unspecified) | – | – | inactive

Structure (SMILES) | ED50 (Felis catus [1]) [mg/kg] | inhibition (INH) (Felis catus [2]) [%] | inhibition (Felis catus [3])
Cc1ccccc1OCC(O)CNCCSc1ccccc1 (stereo unspecified) | 1.55 | 53 | –
Cc1ccc([S+]([O-])CCNCC(O)COc2ccccc2)cc1 (stereo unspecified) | 0.121 | 13 | –
OC(CNCCSc1ccc(Cl)cc1)COc1ccccc1 (stereo unspecified) | – | – | inactive
COc1ccccc1OCC(O)CNCCSc1ccccc1 (stereo unspecified) | – | – | inactive
O=C(O)C(=O)O.OC(CNCCSc1ccccc1)COc1ccccc1Cl (stereo unspecified) | 1.46 | 0 | –
O=C(O)C(=O)O.OC(CNCCSCc1ccccc1)COc1ccccc1 (stereo unspecified) | 0.207 | – | –
N#Cc1ccccc1OCC(O)CNCCSc1ccccc1 (stereo unspecified) | – | – | inactive
CCSCCCNCC(O)COc1ccc([N+](=O)[O-])cc1 (stereo unspecified) | – | – | inactive
CCSCCCNCC(O)COc1ccc(NC(C)=O)cc1 (stereo unspecified) | – | – | inactive
Cl.OC(CNCCCSc1ccccc1)COc1ccccc1 (stereo unspecified) | 0.415 | – | –
O=[N+]([O-])c1ccccc1OCC(O)CNCCC[S+]([O-])C1CCCCC1 (stereo unspecified) | – | – | inactive
Cc1ccc(SCCCNCC(O)COc2ccccc2[N+](=O)[O-])cc1 (stereo unspecified) | – | – | inactive
O=[N+]([O-])c1ccccc1OCC(O)CNCCCSC1CCCCC1 (stereo unspecified) | – | – | inactive
CCSCCCNCC(O)COc1ccc(OC)cc1 (stereo unspecified) | – | – | inactive
CC(C)(C[S+]([O-])c1ccccc1)NCC(O)COc1ccccc1.O=C(O)C(=O)O (stereo unspecified) | 0.185 | 84 | –
O=C(O)C(=O)O.O=[N+]([O-])c1ccccc1OCC(O)CNCCSC1CCCCC1 (stereo unspecified) | 0.427 | 37 | –
CCC(C)(C)CSCCCNCC(O)COc1ccccc1.O=C(O)C(=O)O (stereo unspecified) | 0.083 | 0 | –
Cl.OC(CNCCSC1CCCCC1)COc1ccccc1 (stereo unspecified) | 0.162 | 0 | –
[O-][S+](CCNCC(O)COc1ccccc1)c1ccc(Cl)cc1 (stereo unspecified) | 0.08 | 0 | –

Structure (SMILES) | ED50 (Felis catus [1]) [mg/kg] | inhibition (INH) (Felis catus [2]) [%] | inhibition (Felis catus [3])
Cc1ccccc1OCC(O)CNCC[S+]([O-])c1ccccc1.O=C(O)C(=O)O (stereo unspecified) | 0.799 | 54 | –
CCSCCNCC(O)COc1ccccc1C#N.O=C(O)C(=O)O (stereo unspecified) | 0.2 | – | –
Cc1ccccc1OCC(O)CNCCCSc1ccccc1 (stereo unspecified) | – | – | inactive
Cc1ccccc1OCC(O)CNCCOc1ccc(C(N)=O)cc1 (stereo unspecified) [TOLAMOLOL] | – | 81 | –
CCSCCCNCC(O)COc1ccccc1C#N.O=C(O)C(=O)O (stereo unspecified) | 0.135 | 0 | –
COc1ccc(OCC(O)CNCCSc2ccccc2)cc1 (stereo unspecified) | – | – | inactive
OC(CNCCSCc1ccccc1)COc1ccccc1Cl (stereo unspecified) | – | – | inactive
COc1ccccc1SCCNCC(O)COc1ccccc1.O=C(O)C(=O)O (stereo unspecified) | 0.482 | 24 | –
CCCc1ccccc1OCC(O)CNCCCSCC (stereo unspecified) | – | – | inactive
CC(CSc1ccccc1)NCC(O)COc1ccccc1.O=C(O)C(=O)O (stereo unspecified) | 0.016 | 0 | –
CC(C)(CSc1ccccc1)NCC(O)COc1ccccc1.O=C(O)C(=O)O (stereo unspecified) | 0.065 | 40 | –
CC(NCC(O)COc1ccccc1)C(C)Sc1ccccc1.O=C(O)C(=O)O (stereo unspecified) | 0.195 | 32 | –
[O-][S+](CCNCC(O)COc1ccccc1)c1ccccc1 (stereo unspecified) | 0.044 | 0 | –
CC(CSc1ccccc1)NCC(O)COc1ccccc1Cl.O=C(O)C(=O)O (stereo unspecified) | 0.058 | 60 | –
O=C(O)C(=O)O.O=[N+]([O-])c1ccccc1OCC(O)CNCCCS(=O)(=O)C1CCCCC1 (stereo unspecified) | 1.46 | 75 | –
C=CCc1ccccc1OCC(O)CNCCCSCC.O=C(O)C(=O)O (stereo unspecified) | 0.72 | 65 | –
O=C(O)C(=O)O.OC(CNCCCSC1CCCCC1)COc1ccccc1 (stereo unspecified) | 0.781 | 37 | –
CCSCCCNCC(O)COc1ccccc1Br.O=C(O)C(=O)O (stereo unspecified) | 0.212 | 0 | –
